Data taken from patent US20240024488A1, “COMPOUNDS AND USES THEREOF” (Foghorn Therapeutics Inc., priority 2020, published 2024).

Key:
HiBit-BRM fusion protein = target: T1, HiBit-BRM fusion protein (Homo sapiens, UniProt P51531); assay: HiBiT-BRM cell-based degradation assay (Nano-Glo HiBiT Lytic Detection, 24 h); settings: HeLa cell line expressing HiBiT-BRM; for DC50: read-out: BRM HiBit Degradation IC50
T1 construct: expressed in transfected cells
Method in brief: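 Percent BRM loss was derived from HiBiT luminescence relative to DMSO-treated cells and cells given 2 μM of a known BRM/BRG1 degrader. Treatment lasted 24 h in HiBiT-BRM HeLa cells, with a top final concentration of 30 μM.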

[1] = target: T2, HiBit-BRG1 fusion protein (Homo sapiens, UniProt P51532); assay: HiBiT-BRG1 cell-based degradation assay (Nano-Glo HiBiT Lytic Detection, 24 h); settings: HeLa cell line expressing HiBit-BRG1 and LgBit; for Dmax: read-out: BRG1 HiBit Degradation Maximum (%); for DC50: read-out: BRMG1 HiBit Degradation IC50
T2 construct: expressed in transfected cells
Method in brief: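 Luminescence from Nano-Glo HiBiT lytic detection, read after 24 h compound exposure, scored degradation in a stable HeLa HiBiT-BRG1/LgBit line seeded at 5000 cells/well. DMSO wells defined 0% and 2 μM known BRM/BRG1 degrader wells defined full degradation.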

T2 sequence (P51532 whole entry, the tested form may be a part): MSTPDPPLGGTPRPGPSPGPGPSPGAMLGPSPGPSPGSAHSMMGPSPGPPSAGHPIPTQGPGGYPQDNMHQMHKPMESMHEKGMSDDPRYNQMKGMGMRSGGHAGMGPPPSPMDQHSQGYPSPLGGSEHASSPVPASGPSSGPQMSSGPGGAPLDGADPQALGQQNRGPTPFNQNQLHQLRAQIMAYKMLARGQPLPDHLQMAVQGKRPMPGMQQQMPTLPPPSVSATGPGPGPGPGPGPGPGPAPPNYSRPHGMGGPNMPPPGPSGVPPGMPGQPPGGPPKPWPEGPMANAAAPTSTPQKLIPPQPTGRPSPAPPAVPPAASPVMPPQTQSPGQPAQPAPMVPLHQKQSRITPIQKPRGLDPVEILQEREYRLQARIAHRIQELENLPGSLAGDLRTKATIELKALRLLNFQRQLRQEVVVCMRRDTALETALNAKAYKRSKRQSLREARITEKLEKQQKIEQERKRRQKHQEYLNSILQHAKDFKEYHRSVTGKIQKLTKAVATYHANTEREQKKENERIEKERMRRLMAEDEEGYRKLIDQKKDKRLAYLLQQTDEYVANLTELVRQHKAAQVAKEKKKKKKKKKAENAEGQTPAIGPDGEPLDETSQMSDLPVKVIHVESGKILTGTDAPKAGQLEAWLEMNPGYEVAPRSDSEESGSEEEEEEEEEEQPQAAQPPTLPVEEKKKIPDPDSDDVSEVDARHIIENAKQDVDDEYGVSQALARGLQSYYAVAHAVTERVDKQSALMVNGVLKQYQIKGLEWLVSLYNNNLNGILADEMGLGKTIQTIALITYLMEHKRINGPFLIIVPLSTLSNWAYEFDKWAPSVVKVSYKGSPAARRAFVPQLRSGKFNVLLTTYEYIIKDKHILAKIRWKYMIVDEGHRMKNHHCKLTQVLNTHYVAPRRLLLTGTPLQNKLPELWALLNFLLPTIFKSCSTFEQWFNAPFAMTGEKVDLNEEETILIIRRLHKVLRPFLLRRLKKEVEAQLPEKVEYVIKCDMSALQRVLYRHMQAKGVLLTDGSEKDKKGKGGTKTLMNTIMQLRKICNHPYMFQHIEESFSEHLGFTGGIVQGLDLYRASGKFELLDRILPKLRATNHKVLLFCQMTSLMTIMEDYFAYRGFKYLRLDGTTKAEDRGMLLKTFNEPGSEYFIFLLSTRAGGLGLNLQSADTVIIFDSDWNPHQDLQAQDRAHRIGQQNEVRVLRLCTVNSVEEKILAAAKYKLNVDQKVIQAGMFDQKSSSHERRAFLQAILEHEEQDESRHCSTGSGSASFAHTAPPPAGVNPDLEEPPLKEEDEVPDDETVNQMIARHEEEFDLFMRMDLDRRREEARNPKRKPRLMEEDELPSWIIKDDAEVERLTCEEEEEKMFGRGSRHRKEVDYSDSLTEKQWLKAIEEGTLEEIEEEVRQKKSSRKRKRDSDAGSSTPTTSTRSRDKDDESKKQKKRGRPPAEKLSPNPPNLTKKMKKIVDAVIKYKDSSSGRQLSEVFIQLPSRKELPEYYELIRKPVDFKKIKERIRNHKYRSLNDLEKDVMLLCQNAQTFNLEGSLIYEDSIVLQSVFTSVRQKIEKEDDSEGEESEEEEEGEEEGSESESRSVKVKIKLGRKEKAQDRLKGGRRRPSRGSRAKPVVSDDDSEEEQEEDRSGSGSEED
T1 sequence (P51531 whole entry, the tested form may be a part): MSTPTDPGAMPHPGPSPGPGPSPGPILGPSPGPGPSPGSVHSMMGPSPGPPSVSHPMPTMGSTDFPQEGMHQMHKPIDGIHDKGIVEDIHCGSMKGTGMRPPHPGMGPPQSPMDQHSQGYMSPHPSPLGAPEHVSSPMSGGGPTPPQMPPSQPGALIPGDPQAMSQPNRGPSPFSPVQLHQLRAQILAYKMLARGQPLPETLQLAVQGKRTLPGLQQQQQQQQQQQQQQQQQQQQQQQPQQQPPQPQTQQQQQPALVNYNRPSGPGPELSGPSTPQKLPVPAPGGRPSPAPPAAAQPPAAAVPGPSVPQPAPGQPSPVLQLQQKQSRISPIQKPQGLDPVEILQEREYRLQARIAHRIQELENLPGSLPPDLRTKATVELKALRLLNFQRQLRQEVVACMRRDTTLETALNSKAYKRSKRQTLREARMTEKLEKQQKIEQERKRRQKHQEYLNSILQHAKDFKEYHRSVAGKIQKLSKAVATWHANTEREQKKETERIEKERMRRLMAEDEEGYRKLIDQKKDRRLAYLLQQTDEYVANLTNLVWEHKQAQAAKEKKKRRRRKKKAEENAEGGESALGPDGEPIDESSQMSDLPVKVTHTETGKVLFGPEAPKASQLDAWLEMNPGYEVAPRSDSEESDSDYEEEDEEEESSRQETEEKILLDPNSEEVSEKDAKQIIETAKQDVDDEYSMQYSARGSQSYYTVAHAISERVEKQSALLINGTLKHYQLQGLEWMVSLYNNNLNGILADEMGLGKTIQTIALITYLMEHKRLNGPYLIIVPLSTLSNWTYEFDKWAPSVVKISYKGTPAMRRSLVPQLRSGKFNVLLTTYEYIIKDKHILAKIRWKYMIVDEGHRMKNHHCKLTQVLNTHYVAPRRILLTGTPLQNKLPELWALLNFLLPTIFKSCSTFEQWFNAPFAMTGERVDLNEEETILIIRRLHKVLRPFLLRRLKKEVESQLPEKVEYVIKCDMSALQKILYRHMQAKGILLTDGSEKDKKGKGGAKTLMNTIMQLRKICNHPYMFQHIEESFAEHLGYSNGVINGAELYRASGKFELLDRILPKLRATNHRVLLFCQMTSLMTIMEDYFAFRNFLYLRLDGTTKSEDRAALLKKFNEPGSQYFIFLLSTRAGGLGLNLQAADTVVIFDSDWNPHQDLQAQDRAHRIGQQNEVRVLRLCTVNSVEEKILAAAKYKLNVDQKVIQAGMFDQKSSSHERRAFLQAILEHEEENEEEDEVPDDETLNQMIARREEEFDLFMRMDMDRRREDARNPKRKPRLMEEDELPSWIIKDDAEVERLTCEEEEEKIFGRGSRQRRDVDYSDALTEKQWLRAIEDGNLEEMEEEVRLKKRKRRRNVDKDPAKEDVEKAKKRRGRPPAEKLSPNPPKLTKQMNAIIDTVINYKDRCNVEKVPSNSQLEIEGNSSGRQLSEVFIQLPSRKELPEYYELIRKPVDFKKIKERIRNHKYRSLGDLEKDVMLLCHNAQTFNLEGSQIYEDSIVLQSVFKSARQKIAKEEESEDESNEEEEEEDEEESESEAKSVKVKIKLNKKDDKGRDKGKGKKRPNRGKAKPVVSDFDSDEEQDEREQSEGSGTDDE

SMILES | BRM HiBit Degradation Maximum (%) (HiBit-BRM fusion protein) | DC50 (HiBit-BRM fusion protein) [nM] | Dmax [1] [%] | DC50 [1] [nM]
Cc1ncsc1-c1ccc([C@H](C)NC(=O)[C@@H]2C[C@@H](O)CN2C(=O)[C@@H](c2cc(N3CCC(N4CCc5[nH]c6nnc(-c7ccccc7O)cc6c5C4)CC3)no2)C(C)C)cc1 (racemic) [Compound 183, (2S,4R)-4-hydroxy-1-((R)-2-(3-(4-(3-(2-hydroxyphenyl)-5,7,8,9-tetrahydro-6H-pyrido[3′,4′:4,5]pyrrolo[2,3-c]pyridazin-6-yl)piperidin-1-yl)isoxazol-5-yl)-3-methylbutanoyl)-N-((S)-1-(4-(4-methylthiazol-5-yl)phenyl)ethyl)pyrrolidine-2-carboxamide] | A (“A” indicates maximum degradation ≥ 75%) | > 100 | < 50 | 
Cc1ncsc1-c1ccc([C@H](C)NC(=O)[C@@H]2C[C@@H](O)CN2C(=O)[C@@H](c2cc(OCCN3CC(COc4c[nH]c5nnc(-c6ccccc6O)cc45)C3)no2)C(C)C)cc1 (racemic) [Compound 185, (2S,4R)-4-hydroxy-1-[(2R)-2-(3-{2-[3-{{[3-(2-hydroxyphenyl)-7H-pyrrolo[2,3-c]pyridazin-5-yl]oxy}methyl)azetidin-1-yl]ethoxy}-1,2-oxazol-5-yl)-3-methylbutanoyl]-N-[(1S)-1-[4-(4-methyl-1,3-thiazol-5-yl)phenyl]ethyl]pyrrolidine-2-carboxamide] | A (“A” indicates maximum degradation ≥ 75%) | > 100 | > 75 | > 1000
Cc1ncsc1-c1ccc([C@H](C)NC(=O)[C@@H]2C[C@@H](O)CN2C(=O)[C@@H](c2cc(OCCN3CC4(Cc5cc(-c6ccccc6O)nnc5N4)C3)no2)C(C)C)cc1 (racemic) [Compound 186, (2S,4R)-4-hydroxy-1-((R)-2-(3-(2-(3′-(2-hydroxyphenyl)-5′,7′-dihydrospiro[azetidine-3,6′-pyrrolo[2,3-c]pyridazin]-1-yl)ethoxy)isoxazol-5-yl)-3-methylbutanoyl)-N-((S)-1-(4-(4-methylthiazol-5-yl)phenyl)ethyl)pyrrolidine-2-carboxamide] | A (“A” indicates maximum degradation ≥ 75%) | > 10 | > 75 | > 100
Cc1ncsc1-c1ccc([C@H](C)NC(=O)[C@@H]2C[C@@H](O)CN2C(=O)[C@@H](c2cc(N3CCC(C(=O)N4CCc5[nH]c6nnc(-c7ccccc7O)cc6c5C4)CC3)no2)C(C)C)cc1 (racemic) [Compound 187, (2S,4R)-4-hydroxy-1-((R)-2-(3-(4-(3-(2-hydroxyphenyl)-6,7,8,9-tetrahydro-5H-pyrido[3′,4′:4,5]pyrrolo[2,3-c]pyridazine-6-carbonyl)piperidin-1-yl)isoxazol-5-yl)-3-methylbutanoyl)-N-((S)-1-(4-(4-methylthiazol-5-yl)phenyl)ethyl)pyrrolidine-2-carboxamide] | A (“A” indicates maximum degradation ≥ 75%) | > 10 | < 50 | 
Cc1ncsc1-c1ccc(CNC(=O)[C@@H]2C[C@@H](O)CN2C(=O)[C@@H](NC(=O)CCCCCNC(=O)[C@H]2CCc3[nH]c4nnc(-c5ccccc5O)cc4c3C2)C(C)(C)C)cc1 (racemic) [Compound 189, (S)-N-(6-(((S)-1-((2S,4R)-4-hydroxy-2-((4-(4-methylthiazol-5-yl)benzyl)carbamoyl)pyrrolidin-1-yl)-3,3-dimethyl-1-oxobutan-2-yl)amino)-6-oxohexyl)-3-(2-hydroxyphenyl)-6,7,8,9-tetrahydro-5H-pyridazino[3,4-b]indole-6-carboxamide] | C (“C” indicates maximum degradation < 50%) |  | < 50 | 
Cc1ncsc1-c1ccc([C@H](C)NC(=O)[C@@H]2C[C@@H](O)CN2C(=O)[C@@H](c2cc(N3CCC(CN4CCc5[nH]c6nnc(-c7ccccc7O)cc6c5C4)CC3)no2)C(C)C)cc1 (racemic) [Compound 193, (2S,4R)-4-hydroxy-1-((R)-2-(3-(4-((3-(2-hydroxyphenyl)-5,7,8,9-tetrahydro-6H-pyrido [3′,4′:4,5]pyrrolo[2,3-c]pyridazin-6-yl)methyl)piperidin-1-yl)isoxazol-5-yl)-3-methylbutanoyl)-N-((S)-1-(4-(4-methylthiazol-5-yl)phenyl)ethyl)pyrrolidine-2-carboxamide] | A (“A” indicates maximum degradation ≥ 75%) | > 10 | > 50 | > 100
Cc1ncsc1-c1ccc([C@H](C)NC(=O)[C@@H]2C[C@@H](O)CN2C(=O)[C@@H](c2cc(OCC(=O)N3CCc4[nH]c5nnc(-c6ccccc6O)cc5c4C3)no2)C(C)C)cc1 (racemic) [Compound 194, (2S,4R)-4-hydroxy-1-((R)-2-(3-(2-(3-(2-hydroxyphenyl)-5,7,8,9-tetrahydro-6H-pyrido[3′,4′:4,5]pyrrolo[2,3-c]pyridazin-6-yl)-2-oxoethoxy)isoxazol-5-yl)-3-methylbutanoyl)-N-((S)-1-(4-(4-methylthiazol-5-yl)phenyl)ethyl)pyrrolidine-2-carboxamide] | C (“C” indicates maximum degradation < 50%) |  | < 50 | 
Cc1ncsc1-c1ccc(CNC(=O)[C@@H]2C[C@@H](O)CN2C(=O)[C@@H](NC(=O)CCCCCNC(=O)[C@@H]2CCc3[nH]c4nnc(-c5ccccc5O)cc4c3C2)C(C)(C)C)cc1 (racemic) [Compound 195, (R)-N-(6-(((S)-1-((2S,4R)-4-hydroxy-2-((4-(4-methylthiazol-5-yl)benzyl)carbamoyl)pyrrolidin-1-yl)-3,3-dimethyl-1-oxobutan-2-yl)amino)-6-oxohexyl)-3-(2-hydroxyphenyl)-6,7,8,9-tetrahydro-5H-pyridazino[3,4-b]indole-6-carboxamide] | B (“B” indicates maximum degradation ≥ 50%) | > 100 | < 50 | 
Cc1ncsc1-c1ccc([C@H](C)NC(=O)[C@@H]2C[C@@H](O)CN2C(=O)[C@@H](c2cc(N3CCN(Cc4cc5cc(-c6ccccc6O)nnc5[nH]4)CC3)no2)C(C)C)cc1 (racemic) [Compound 199, (2S,4R)-4-hydroxy-1-((R)-2-(3-(4-((3-(2-hydroxyphenyl)-7H-pyrrolo[2,3-c]pyridazin-6-yl)methyl)piperazin-1-yl)isoxazol-5-yl)-3-methylbutanoyl)-N-((S)-1-(4-(4-methylthiazol-5-yl)phenyl)ethyl)pyrrolidine-2-carboxamide] | A (“A” indicates maximum degradation ≥ 75%) | > 10 | < 50 | 
Cc1ncsc1-c1ccc([C@H](C)NC(=O)[C@@H]2C[C@@H](O)CN2C(=O)C(c2cc(N3CCC(C(=O)N4CCc5[nH]c6nnc(-c7ccccc7O)cc6c5C4)CC3)no2)C(C)C)cc1 (mixture of isomers) [Compound 205, (2S,4R)-4-hydroxy-1-((R)-2-(3-(4-(3-(2-hydroxyphenyl)-6,7,8,9-tetrahydro-5H-pyrido[3′,4′:4,5]pyrrolo[2,3-c]pyridazine-6-carbonyl)piperidin-1-yl)isoxazol-5-yl)-3-methylbutanoyl)-N-((S)-1-(4-(4-methylthiazol-5-yl)phenyl)ethyl)pyrrolidine-2-carboxamide] | C (“C” indicates maximum degradation < 50%) |  | < 50 | 
Cc1ncsc1-c1ccc([C@H](C)NC(=O)[C@@H]2C[C@@H](O)CN2C(=O)[C@@H](c2cc(OCCN3CC(n4c(=O)[nH]c5nnc(-c6ccccc6O)cc54)C3)no2)C(C)C)cc1 (racemic) [Compound 206, (2S,4R)-4-hydroxy-1-[(2R)-2-[3-(2-{3-[3-(2-hydroxyphenyl)-6-oxo-7H-imidazo[4,5-c]pyridazin-5-yl]azetidin-1-yl}ethoxy)-1,2-oxazol-5-yl]-3-methylbutanoyl]-N-[(1S)-1-[4-(4-methyl-1,3-thiazol-5-yl)phenyl]ethyl]pyrrolidine-2-carboxamide] | C (“C” indicates maximum degradation < 50%) |  | < 50 | 
Cc1ncsc1-c1ccc([C@H](C)NC(=O)[C@@H]2C[C@@H](O)CN2C(=O)[C@@H](c2cc(OCCN3CCN(Cc4cc5cc(-c6ccccc6O)nnc5[nH]4)CC3)no2)C(C)C)cc1 (racemic) [Compound 208, (2S,4R)-4-hydroxy-1-((R)-2-(3-(2-(4-((3-(2-hydroxyphenyl)-7H-pyrrolo[2,3-c]pyridazin-6-yl)methyl)piperazin-1-yl)ethoxy)isoxazol-5-yl)-3-methylbutanoyl)-N-((S)-1-(4-(4-methylthiazol-5-yl)phenyl)ethyl)pyrrolidine-2-carboxamide] | A (“A” indicates maximum degradation ≥ 75%) | > 10 | < 50 | 
Cc1ncsc1-c1ccc([C@H](C)NC(=O)[C@@H]2C[C@@H](O)CN2C(=O)[C@@H](c2cc(OCCN3C[C@@H]4[C@H](C3)[C@H]4c3c[nH]c4nnc(-c5ccccc5O)cc34)no2)C(C)C)cc1 (racemic) [Compound 210, (2S,4R)-4-hydroxy-1-((R)-2-(3-(2-((1R,5S,6S)-6-(3-(2-hydroxyphenyl)-7H-pyrrolo[2,3-c]pyridazin-5-yl)-3-azabicyclo[3.1.0]hexan-3-yl)ethoxy)isoxazol-5-yl)-3-methylbutanoyl)-N-((S)-1-(4-(4-methylthiazol-5-yl)phenyl)ethyl)pyrrolidine-2-carboxamide] | C (“C” indicates maximum degradation < 50%) |  | < 50 | 
